Data taken from patent publication US20170105979A1, “USE OF A TORASEMIDE-BASED VETERINARY COMPOSITION FOR LOW-DOSE ADMINISTERING” (VIRBAC, priority 2014, published 2017).
Like-named read-outs stand apart in the source and are kept apart here. Values belong to the compound of their own block, whether it stands above or below them.

Experiments:
[1] = plasma aldosterone concentration (innocuousness); format: in vivo, female Beagle dogs; conditions: FIG. 8
[2] = 0.2 mg/kg/day in the morning for 28 days, dogs with congestive heart failure; cited from earlier work
[3] = single administration, healthy rats and dogs; cited from earlier work
[4] = cited from earlier work
[5] = urinary fractional excretion of sodium (FENa) in healthy dogs; format: in vivo, female Beagle dogs; conditions: single (0.05 or 0.5 mg/kg) and repeated administrations for three weeks; FIGS. 9 and 10
Text: One of the solutions for making the link between clinical and experimental is the calculation of the fractional excretion of sodium. This value is the ratio of the urinary sodium clearance to the urinary creatinine clearance. It requires assaying the creatinine in the plasma and in the urine, and also assaying the sodium in the plasma and the urine also, which is entirely envisionable “in the field”. This fractional excretion of sodium (FENa) represents the percentage of sodium filtered by the kidney that is finally excreted in the urine. It is determined using equation 1 below: where Naurine and […] are the sodium concentrations in the urine and the plasma, respectively, and Creatinineplasma and Creatinineurine are the creatinine concentrations in the plasma and the urine, respectively. The fractional excretion of sodium is the sodium excretion divided by the glomerular filtration rate (GFR), the GFR being estimated by the creatinine clearance.

[6] = prolonged treatments of 14 days; torasemide 0.4 mg/kg/day; cited from earlier work
[7] = plasma creatinine and creatinine clearance (innocuousness); format: in vivo, female Beagle dogs; conditions: torasemide 0.05 mg/kg/day
Method: Other criteria were evaluated in order to determine the safety of this dosage: • plasma creatinine • creatinine clearance • plasma urea • plasma aldosterone. […] The following measurements are carried out: • →urine: volume, pH, creatinine, osmolarity, sodium, potassium; • →plasma: sodium, potassium, urea, aldosterone.

[8] = plasma urea concentration (innocuousness); format: in vivo, female Beagle dogs; conditions: FIG. 7
[9] = urine volume over 24 h in treated healthy dogs; format: in vivo, female Beagle dogs; conditions: FIG. 3
Method: (§1) Several criteria were evaluated in order to determine the efficacy of this dosage: • urine volume • water consumption • urinary sodium clearance • urinary potassium clearance • osmolar clearance • free-water clearance • urinary fraction excretion of sodium • urinary fraction excretion of potassium. […] The following measurements are carried out: • →urine: volume, pH, creatinine, osmolarity, sodium, potassium; • →plasma: sodium, potassium, urea, aldosterone.

[10] = urinary sodium clearance in healthy female Beagle dogs; format: in vivo
Method: Several criteria were evaluated in order to determine the efficacy of this dosage: • urine volume • water consumption • urinary sodium clearance • urinary potassium clearance • osmolar clearance • free-water clearance • urinary fraction excretion of sodium • urinary fraction excretion of potassium. […] The following measurements are carried out: • →urine: volume, pH, creatinine, osmolarity, sodium, potassium; • →plasma: sodium, potassium, urea, aldosterone. In this experiment, torasemide is tested at two single doses: 0.05 mg/kg or 0.5 mg/kg for a daily administration for three weeks. The continuous administration of diuretics causes a net deficit of sodium ions in the body, but renal compensation mechanisms adjust sodium excretion in line with sodium intake. This phenomenon is known as “diuretic braking”. […] In the experimental studies described above, carried out on healthy dogs, the modification of urinary sodium excretion by torasemide is evaluated by calculating urinary sodium clearance according to the following equation: Urinary sodium concentration×total urine volume/plasma sodium concentration

[11] = 7 days, cited from earlier work; for clinical state of the disease: furosemide 5.13 mg/kg/day or torasemide 0.5 mg/kg/day, oral twice-daily
[12] = urinary potassium clearance in treated healthy dogs; format: in vivo, female Beagle dogs; conditions: first day of treatment, low-dose torasemide compared with other treatments; FIG. 5
Method: as §1, with “aldosterone. The excretion of potassium ions in the urine of the treated dogs was measured over a period of 24 hours, and is presented in FIG. 5.” for “aldosterone.”

[13] = water consumption over 24 h in treated healthy dogs; format: in vivo, female Beagle dogs; conditions: FIG. 4
Method: as §1

[14] = high dose of torasemide (0.5 mg/kg/day), D18 and D28
[15] = low dose of torasemide (0.05 mg/kg/day)

- plasma aldosterone concentration [1, 14]: increase
- increase in plasma aldosterone concentration [1, 15]: not observed
- plasma creatinine concentration ([7]; whatever the day of the sample): no effect
- creatinine clearance ([7]; FIG. 6): no effect
- plasma urea concentration [8, 14]: increase
- increase in plasma urea concentration [8, 15]: not observed
Compound: Cc1cccc(Nc2ccncc2S(=O)(=O)NC(=O)NC(C)C)c1 [torasemide, N-[(isopropyl-amino)carbonyl]-4-[(3-methylphenyl)amino]pyridine-3-sulfonamide]
- potassium excretion in the urine [2]: increased
- sodium excretion [2]: not increased
- dose-effect relationship for diuretic effect and ion secretion [3]: relationship between the dose administered and the size of the diuretic effect and of the ion secretion
- potassium excretion in the urine ([4]; sick dogs, after 7 days, compared with furosemide): less than that observed for the dogs treated with furosemide
- persistence of the diuretic effect ([4]; torasemide 0.2 mg/kg): 12 h
- fractional excretion of sodium [5]: in agreement with those obtained by directly measuring the urinary sodium clearance
- diuretic resistance [6]: this resistance does not occur
- plasma creatinine concentrations [6]: increase in plasma creatinine concentrations
- urine volume ([9]; torasemide 0.05 mg/kg/day, D7, D18, D28): do not show any change
- urine volume ([9]; torasemide 0.5 mg/kg/day, from first day (D7), maintained over three weeks): clear increase
- diuretic braking effect ([10]; dogs in good health, single dose of 0.5 mg/kg): occurs
- net effect over the course of 24 hours on urinary sodium clearance ([10]; repeated administrations, high dose of torasemide 0.5 mg/kg/day, FIG. 2): no net effect
- effect on urinary sodium clearance ([10]; repeated administrations, low dose of torasemide 0.05 mg/kg, D7, D18, D28, FIG. 2): effect that was clearly visible
- overall effect on sodium clearance over the course of 24 hours ([10]; single dose, low dose 0.05 mg/kg compared with high dose 0.5 mg/kg, FIG. 1): higher than the overall effect of the high dose of torasemide (0.5 mg/kg)
- clinical state of the disease [11]: maintain the disease in a stable state
- diuretic effect compared with furosemide ([11]; torasemide 0.5 mg/kg/day vs furosemide 5.13 mg/kg/day): better diuretic effect
- effect on potassium ion excretion in the urine [12]: lower than with the other treatments
- water consumption over a period of 24 h ([13]; torasemide 0.05 mg/kg/day): only a small change
- water consumption over a period of 24 h ([13]; torasemide 0.5 mg/kg/day, especially D18 and D28): clear increase

Compound: NS(=O)(=O)c1cc(C(=O)O)c(NCc2ccco2)cc1Cl [furosemide]
- dose-effect relationship for diuretic effect and ion secretion [3]: relationship between the dose administered and the size of the diuretic effect and of the ion secretion
- time after administration at which the diuretic effect decreases ([4]; furosemide): 6 h
- time after administration at which the diuretic effect appears ([4]; torasemide 0.2 mg/kg): approximately 1 hours
- diuretic resistance [6]: develop “diuretic resistance”
- urine volume ([9]; furosemide 5 mg/kg/day, from first day (D7), maintained over three weeks): clear increase
- clinical state of the disease [11]: maintain the disease in a stable state
- water consumption over a period of 24 h ([13]; furosemide 5 mg/kg/day, especially D18 and D28): clear increase
